The values below come from EPA's ToxRefDB 2.

By LOAEL is commonly meant the lowest dose or exposure tested at which an adverse effect was seen. As usually defined, the NOAEL is the highest dose or exposure tested at which no adverse effect was seen.

The subject of data set [1] is rat. The settings on record: Subchronic oral toxicity in rodents, fischer, Gavage/Intubation, dose end: 13 week, group: systemic, systemic / in life observation / clinical signs / aggressive behavior + systemic / in life observation / clinical signs / hypersensitivity….
The subject of data set [2] is mouse. The settings on record: Subchronic oral toxicity in rodents, b6c3f1, Gavage/Intubation, dose end: 22 week, group: systemic, systemic / in life observation / clinical signs / aggressive behavior + systemic / in life observation / clinical signs / convulsions + ….
For data set [3], the system named is rat. Particulars: Carcinogenicity, fischer, Oral, Gavage/Intubation, dose end: 105 week, group: systemic.
The test system of data set [4] is mouse. Particulars: Subchronic oral toxicity in rodents, b6c3f1, Gavage/Intubation, dose end: 13 week.
Data set [5] deals with rat. The settings on record: Subchronic oral toxicity in rodents, fischer, Gavage/Intubation, dose end: 13 week.
Data set [6] has as its system rat. The settings on record: Sub-acute repeat dose toxicity; wistar; Oral; Feed; dose end: 21 day; group: systemic; systemic / clinical chemistry / [other] / [other] + systemic / clinical chemistry / 5' nucleotidase / 5' nucleotidase + systemic / organ ….
Data set [7] deals with rat. Particulars: Prenatal developmental toxicity study, sprague dawley, Oral, Gavage/Intubation, dose end: 20 GD.
Data set [8] deals with mouse. The settings on record: Combined chronic toxicity/carcinogenicity, b6c3f1, Oral, Feed, dose end: 2 year, group: systemic.
Data set [9] deals with rat. Particulars: Subchronic oral toxicity in rodents, fischer, Feed, dose end: 12 week, group: systemic.
For data set [10], the system named is mouse. Particulars: Subchronic oral toxicity in rodents, b6c3f1, Feed, dose end: 12 week, group: systemic.
Data set [11] has as its system rat. Particulars: Combined chronic toxicity/carcinogenicity; fischer; Oral; Feed; dose end: 2 year; group: systemic; systemic / in life observation / body weight / body weight.
Where [12] appears, read: systemic / in life observation / clinical signs / [other] + systemic / in life observation / clinical signs / convulsions.
Where [13] appears, read: systemic / in life observation / clinical signs / [other] + systemic / in life observation / clinical signs / convulsions + systemic / ….
The mark [14] stands for this setting: group: maternal, reproductive / reproductive performance / estrous cycle / abnormal.
Where [15] appears, read: group: systemic, systemic / in life observation / body weight / body weight + systemic / in life observation / body weight / body weight gain.
[16] abbreviates: group: systemic, systemic / in life observation / clinical signs / aggressive behavior + systemic / in life observation / clinical signs / convulsions + ….
Where [17] appears, read: group: systemic, systemic / in life observation / clinical signs / aggressive behavior + systemic / in life observation / clinical signs / reactivity to ….
The mark [18] stands for this setting: group: developmental, developmental / developmental malformation / bone / delayed ossification + developmental / developmental malformation / bone / supernumerary….
Where [19] appears, read: group: maternal, reproductive / reproductive performance / postimplantation loss / postimplantation loss + reproductive / reproductive performance / ….
The mark [20] stands for this setting: group: maternal, systemic / clinical chemistry / [other] / [other] + systemic / organ weight / liver / absolute + systemic / organ weight / liver / relative ….
[21] abbreviates: systemic / in life observation / body weight / body weight + systemic / pathology microscopic / liver / carcinoma.
[22] abbreviates: systemic / pathology microscopic / liver / carcinoma.
The mark [23] stands for this setting: systemic / in life observation / body weight / body weight gain.
Setting [24] is: systemic / in life observation / body weight / body weight gain + systemic / pathology microscopic / bone marrow / hyperplasia + systemic / ….

On to `CCCCCc1cc(O)c2c(c1)OC(C)(C)[C@@H]1CCC(C)=C[C@@H]21` [1-trans-delta-9-Tetrahydrocannabinol], for which the LEL in the data set on rat [1] came out at 5 mg/kg/day; in the data set with mouse [2], 5 mg/kg/day; in the data set on rat [3] (setting [13]) it was 12.5 mg/kg/day; with mouse [4] (setting [14]), 5 mg/kg/day; in the data set on mouse [4] (setting [16]), 5 mg/kg/day; in the data set with rat [5] (setting [14]) it was 15 mg/kg/day. In addition, the LEL with rat [5] (setting [17]) came to 5 mg/kg/day. Further, the LOAEL is above 500 mg/kg/day in the data set on rat [1]; above 500 mg/kg/day in the data set on mouse [2]; 12.5 mg/kg/day with rat [3] (setting [12]); above 500 mg/kg/day with mouse [4] (setting [14]); 500 mg/kg/day with mouse [4] (setting [15]); above 500 mg/kg/day in the data set with rat [5] (setting [14]). The LOAEL in the data set on rat [5] (setting [15]) was determined as 15 mg/kg/day. Moreover, the NEL in the data set on rat [1] is below 5 mg/kg/day; with mouse [2], below 5 mg/kg/day; in the data set with rat [3] (setting [13]), below 12.5 mg/kg/day; in the data set on mouse [4] (setting [14]), below 5 mg/kg/day; with mouse [4] (setting [16]) it was below 5 mg/kg/day; in the data set with rat [5] (setting [14]), 5 mg/kg/day. For the same compound, the NEL with rat [5] (setting [17]) was below 5 mg/kg/day. In addition, the NOAEL is at least 500 mg/kg/day in the data set with rat [1]; at least 500 mg/kg/day in the data set with mouse [2]; below 12.5 mg/kg/day in the data set with rat [3] (setting [12]); at least 500 mg/kg/day in the data set with mouse [4] (setting [14]); 150 mg/kg/day with mouse [4] (setting [16]); at least 500 mg/kg/day in the data set with rat [5] (setting [14]). Besides, in the data set with rat [5] (setting [17]), the NOAEL is 5 mg/kg/day.

In the case of `CCCCCCOC(=O)c1ccccc1C(=O)OCCCCCC` [Dihexyl phthalate], the LEL stood at 1000 mg/kg/day in the data set on rat [6], 250 mg/kg/day in the data set with rat [7] (setting [18]) and 250 mg/kg/day in the data set on rat [7] (setting [20]). The LOAEL in the data set on rat [6] was above 1000 mg/kg/day; in the data set on rat [7] (setting [18]), 250 mg/kg/day; in the data set with rat [7] (setting [19]), above 750 mg/kg/day. Further, the NEL is below 1000 mg/kg/day in the data set on rat [6], below 250 mg/kg/day in the data set on rat [7] (setting [18]) and below 250 mg/kg/day with rat [7] (setting [20]). Further, the NOAEL is at least 1000 mg/kg/day in the data set with rat [6], below 250 mg/kg/day in the data set with rat [7] (setting [18]) and at least 750 mg/kg/day in the data set with rat [7] (setting [19]).

With `O=S(=O)([O-])c1ccc(N=Nc2c(O)ccc3cc(S(=O)(=O)[O-])ccc23)cc1.[Na+].[Na+]` [FD&C Yellow 6], the LOAEL with mouse [8] (setting [21]) was above 3750 mg/kg/day; with rat [9] (setting [23]), 2500 mg/kg/day; with mouse [10] (setting [23]), 15000 mg/kg/day; in the data set on rat [11], above 1250 mg/kg/day. Moreover, the NOAEL in the data set with mouse [8] (setting [21]) is at least 3750 mg/kg/day; with rat [9] (setting [24]), 1250 mg/kg/day; in the data set on mouse [10] (systemic / in life observation / body weight / body weight gain + systemic / in life observation / body weight / body weight) it was 7500 mg/kg/day; in the data set on rat [11], at least 1250 mg/kg/day. In addition, the LEL in the data set on mouse [8] (setting [22]) came to 1880 mg/kg/day; with rat [9] (setting [23]), 625 mg/kg/day; in the data set with mouse [10] (setting [23]), 900 mg/kg/day; with rat [11], 1250 mg/kg/day. Moreover, the NEL with mouse [8] (setting [22]) was below 1880 mg/kg/day; in the data set on rat [9] (setting [24]), 300 mg/kg/day; in the data set on mouse [10] (setting [23]) it was below 900 mg/kg/day; in the data set with rat [11], 625 mg/kg/day.
